Patent US9452980B2, “Substituted benzamides” (Hoffmann-La Roche Inc., priority 2009, dated 2016)
Where a name gives a salt, the structure may show the parent alone. Read-outs that look alike come from different tables or passages of the source.

Key:
mouse TAAR1 = mouse TAAR1 (Mus musculus (Mouse), UniProt Q923Y8); assay: Radioligand binding assay on mouse TAAR1
Protocol: (§1) For the construction of expression plasmids the coding sequences of human, rat and mouse TAAR1 were amplified from genomic DNA essentially as described by Lindemann et al.. The Expand High Fidelity PCR System (Roche Diagnostics) was used with 1.5 mM Mg^2+ and purified PCR products were cloned into pCR2.1-TOPO cloning vector (Invitrogen) following the instructions of the manufacturer. PCR products were subcloned into the pIRESneo2 vector (BD Clontech, Palo Alto, Calif.), and expression vectors were sequence verified before introduction in cell lines.
(§2) HEK293 cells (ATCC #CRL-1573) were cultured essentially as described by Lindemann et al. (2005). For the generation of stably transfected cell lines HEK293 cells were transfected with the pIRESneo2 expression plasmids containing the TAAR coding sequences (described above) with Lipofectamine 2000 (Invitrogen) according to the instructions of the manufacturer, and 24 hrs post transfection the culture medium was supplemented with 1 mg/ml G418 (Sigma, Buchs, Switzerland). After a culture period of about 10 d clones were isolated, expanded and tested for responsiveness to trace amines (all compounds purchased from Sigma) with the cAMP Biotrak Enzyme immunoassay (EIA) System (Amersham) following the non-acetylation EIA procedure provided by the manufacturer.
Radioligand Binding Assay on Mouse TAAR1
(§3) Membrane Preparation and Radioligand Binding.
(§4) HEK-293 cells stably expressing mouse TAAR1 were maintained at 37° C. and 5% CO2 in DMEM high glucose medium, containing fetal calf serum (10%, heat inactivated for 30 min at 56° C.), penicillin/streptomycin (1%), and 375 μg/ml geneticin (Gibco). Cells were released from culture flasks using trypsin/EDTA, harvested, washed twice with ice-cold PBS (without Ca^2+ and Mg^2+), pelleted at 1,000 rpm for 5 min at 4° C., frozen and stored at −80° C. Frozen pellets were suspended in 20 ml HEPES-NaOH (20 mM, pH 7.4) containing 10 mM EDTA and homogenized with a Polytron (PT 6000, Kinematica) at 14,000 rpm for 20 s. The homogenate was centrifuged at 48,000×g for 30 min at 4° C. Subsequently, the supernatant was removed and discarded, and the pellet resuspended in 20 ml HEPES-NaOH (20 mM, pH 7.4) containing 0.1 mM EDTA using the Polytron (20 s at 14,000 rpm). This procedure was repeated and the final pellet resuspended in HEPES-NaOH containing 0.1 mM EDTA and homogenized using the Polytron. Typically, aliquots of 2 ml membrane portions were stored at −80° C. With each new membrane batch the dissociation constant (Kd) was determined via a saturation curve. […] Nonspecific binding was defined as the amount of ^3[H]—(S)-4-[(ethyl-phenyl-amino)-methyl]-4,5-dihydro-oxazol-2-ylamine bound in the presence of 10 μM unlabeled ligand. All compounds were tested at a broad range of concentrations (10 pM to 10 μM) in duplicates. […] The 96 deep well plates were incubated for 1 hr at 4° C. Incubations were terminated by rapid filtration through Unifilter-96 plates (Packard Instrument Company) and glass filters GF/C (Perkin Elmer) presoaked for 1 hr in polyethylenimine (0.3%) and washed 3 times with 1 ml of cold binding buffer. After addition of 45 μl of Microscint 40 (PerkinElmer) the Unifilter-96 plate was sealed and after 1 hr the ratioactivity counted using a TopCount Microplate Scintillation Counter (Packard Instrument Company).

rat TAAR1 = rat TAAR1 (Rattus norvegicus (Rat), UniProt Q923Y9); assay: Radioligand binding assay on rat TAAR1
Chain of rat TAAR1 (Q923Y9 whole entry): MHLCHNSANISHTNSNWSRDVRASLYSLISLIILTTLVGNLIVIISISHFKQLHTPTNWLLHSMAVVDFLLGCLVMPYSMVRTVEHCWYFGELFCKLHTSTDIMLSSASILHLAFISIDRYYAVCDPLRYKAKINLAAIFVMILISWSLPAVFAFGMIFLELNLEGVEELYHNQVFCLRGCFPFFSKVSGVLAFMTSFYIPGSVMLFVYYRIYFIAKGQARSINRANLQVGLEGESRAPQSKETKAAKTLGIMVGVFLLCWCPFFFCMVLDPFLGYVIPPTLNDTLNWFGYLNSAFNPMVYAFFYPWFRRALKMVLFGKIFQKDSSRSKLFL
Protocol: as §1, §2
Radioligand Binding Assay on Rat TAAR1
as §3
as §4, with “rat” for “mouse”

[1] = mouse TAAR1, HEK-293 membranes, first value of cell mouse/rat, read-out: Ki (μM) mouse
[2] = rat TAAR1, HEK-293 membranes, second value of cell mouse/rat, read-out: Ki (μM) rat

Chain of mouse TAAR1 (Q923Y8 whole entry): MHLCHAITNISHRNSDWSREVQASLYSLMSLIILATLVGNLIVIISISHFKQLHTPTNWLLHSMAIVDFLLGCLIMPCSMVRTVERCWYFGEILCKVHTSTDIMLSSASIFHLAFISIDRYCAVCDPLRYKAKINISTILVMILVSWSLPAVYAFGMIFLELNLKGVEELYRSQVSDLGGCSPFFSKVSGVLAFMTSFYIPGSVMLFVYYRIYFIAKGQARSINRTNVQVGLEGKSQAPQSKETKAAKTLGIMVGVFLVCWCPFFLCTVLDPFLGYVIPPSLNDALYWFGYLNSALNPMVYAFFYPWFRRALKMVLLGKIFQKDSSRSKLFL

Ki (mouse TAAR1; [1]) [µM] | Ki (rat TAAR1; [2]) [µM] | SMILES | Ki (rat TAAR1; read-out: Ki (μM) rat) [µM] | also measured
– | – | O=C(Nc1ccc([C@@H]2CNCCO2)cc1)c1cc(Cl)nc(Cl)c1 [Example 270, (R)-2,6-Dichloro-N-(4-(morpholin-2-yl)phenyl)isonicotinamide hydrochloride] | 0.0045 | Ki (mouse TAAR1; read-out: Ki (μM) mouse): 0.0049 µM
0.245 | 0.0358 | O=C(Nc1ccc(C2CCNC2)nc1)c1ccc(Cl)cc1 (racemic) [Example 140, (RS)-4-Chloro-N-(6-pyrrolidin-3-yl-pyridin-3-yl)-benzamide] | – | –
0.0016 | 0.0053 | CCCc1ccc(C(=O)Nc2ccc(C3CCNC3)cc2)cc1 (racemic) [Example 53, (RS)-4-Propyl-N-(4-pyrrolidin-3-yl-phenyl)-benzamide hydrochloride] | – | –
0.0266 | 0.0038 | Cc1ccc(CNC(=O)Nc2ccc(C3CNCCO3)cc2)cc1 (racemic) [Example 306, (RS)-1-(4-Methylbenzyl)-3-(4-(morpholin-2-yl)phenyl)urea hydrochloride] | – | –
0.0192 | 0.0101 | COc1cc(C(=O)Nc2ccc(C3CCNC3)cc2)nc2ccccc12 (racemic) [Example 90, (RS)-4-Methoxy-quinoline-2-carboxylic acid (4-pyrrolidin-3-yl-phenyl)-amide hydrochloride] | – | –
– | – | O=C(NCc1ccc([C@@H]2CNCCO2)cc1)c1ccc(C(F)(F)F)nc1 [Example 321, (R)—N-(4-(Morpholin-2-yl)benzyl)-6-(trifluoromethyl)nicotinamide hydrochloride] | 0.026 | Ki (mouse TAAR1; read-out: Ki (μM) mouse): 1.31 µM
0.0013 | 0.0015 | O=C(Nc1ccc(C2CCNC2)cc1)Nc1ccc(C(F)(F)F)cc1 (racemic) [Example 27, (RS)-1-(4-Pyrrolidin-3-yl-phenyl)-3-(4-trifluoromethyl-phenyl)-urea hydrochloride] | – | –
0.0531 | 0.0029 | O=C(Nc1ccc(CCC2CCNC2)cc1)c1ccc(Cl)cn1 (racemic) [Example 117, (RS)-5-Chloro-pyridine-2-carboxylic acid [4-(2-pyrrolidin-3-yl-ethyl)-phenyl]-amide hydrochloride] | – | –
0.002 | 0.012 | O=C(Nc1ccc(C2CCCNC2)cc1)Nc1ccc(Cl)cn1 (racemic) [Example 83, (RS)-1-(5-Chloro-pyridin-2-yl)-3-(4-piperidin-3-yl-phenyl)-urea hydrochloride] | – | –
– | – | COc1ccc(C(=O)Nc2ccc([C@H]3CCCNC3)cc2)cc1Cl [Example 202, (R)-3-Chloro-4-methoxy-N-(4-(piperidin-3-yl)phenyl)benzamide hydrochloride] | 0.0015 | Ki (mouse TAAR1; read-out: Ki (μM) mouse): 0.0087 µM
0.0022 | 0.0014 | O=C(Nc1ccc(C2CNCCO2)cc1)c1ccn(-c2ccccc2)n1 (racemic) [Example 299, (RS)—N-(4-(Morpholin-2-yl)phenyl)-1-phenyl-1H-pyrazole-3-carboxamide hydrochloride] | – | –
0.15 | 0.0317 | O=C(Nc1ccc(C2CNCCO2)cc1)c1ccc(OC2CCOCC2)nc1 (racemic) [Example 232, (RS)—N-(4-(Morpholin-2-yl)phenyl)-6-(tetrahydro-2H-pyran-4-yloxy)nicotinamide hydrochloride] | – | –
– | – | O=C(Nc1ccc(C2CCNC2)cc1)Oc1ccccc1 (racemic) [Example 11, (RS)-(4-Pyrrolidin-3-yl-phenyl)-carbamic acid phenyl ester hydrochloride] | – | Ki (mouse TAAR1): 0.0065 µM; Ki (rat TAAR1): 0.0315 µM
0.0013 | 0.0022 | O=C(Nc1ccc(C2CCNC2)cc1)Nc1ccc(Cl)cn1 (racemic) [Example 44, (RS)-1-(5-Chloro-pyridin-2-yl)-3-(4-pyrrolidin-3-yl-phenyl)-urea hydrochloride] | – | –
0.137 | 0.645 | N#Cc1cccc(CC(=O)Nc2ccc(C3CCNC3)cc2)c1 (racemic) [Example 66, (RS)-2-(3-Cyano-phenyl)-N-(4-pyrrolidin-3-yl-phenyl)-acetamide] | – | –
0.0017 | 0.0238 | O=C(Nc1ccc(C2CCNC2)cc1)c1ccc(Cl)cc1F (racemic) [Example 77, (RS)-4-Chloro-2-fluoro-N-(4-pyrrolidin-3-yl-phenyl)-benzamide hydrochloride] | – | –
– | – | O=C(Nc1ccc([C@@H]2CNCCO2)cc1)c1ccc(Cl)cc1 [Example 143, 4-Chloro-N—((R)-4-morpholin-2-yl-phenyl)-benzamide hydrochloride] | 0.0006 | Ki (mouse TAAR1; read-out: Ki (μM) mouse): 0.0054 µM

SMILES | Ki (mouse TAAR1; [1]) [µM] | Ki (rat TAAR1; [2]) [µM] | Ki (rat TAAR1; read-out: Ki (μM) rat) [µM] | also measured
O=C(Nc1ccc([C@@H]2CNCCO2)cc1)c1ccc(C(F)(F)F)nc1 [Example 283, (R)—N-(4-(Morpholin-2-yl)phenyl)-6-(trifluoromethyl)nicotinamide hydrochloride] | 0.006 | – | 0.0059 | –
O=C(Nc1ccc(C2CNCCO2)cc1)c1csc(-c2cnccn2)n1 (racemic) [Example 288, (RS)—N-(4-(Morpholin-2-yl)phenyl)-2-(pyrazin-2-yl)thiazole-4-carboxamide hydrochloride] | – | 0.0075 | – | Ki (mouse TAAR1; read-out: Ki (μM) mouse): 0.0278 µM
O=C(Nc1ccc(CCC2CCCCN2)cc1)c1ccc(F)cc1 (racemic) [Example 170, (RS)-4-Fluoro-N-(4-(2-(piperidin-2-yl)ethyl)phenyl)benzamide hydrochloride] | 0.234 | 0.0158 | – | –
CN1CCN(c2ccc(NC(=O)Nc3ccc(Cl)c(Cl)c3)cc2)CC1 [Example 2, 1-(3,4-Dichloro-phenyl)-3-[4-(4-methyl-piperazin-1-yl)-phenyl]-urea] | – | 0.001 | – | Ki (mouse TAAR1; read-out: Ki (μM) mouse): 0.0006 µM
C#Cc1ccc(C(=O)Nc2ccc(C3CCNC3)cc2)cc1 (racemic) [Example 54, (RS)-4-Ethynyl-N-(4-pyrrolidin-3-yl-phenyl)-benzamide hydrochloride] | 0.0021 | – | 0.0152 | –
O=C(Nc1ccc(Cl)cc1)Nc1ccc(C2CCNC2)cc1 (racemic) [Example 5, (RS)-1-(4-Chloro-phenyl)-3-(4-pyrrolidin-3-yl-phenyl)-urea hydrochloride] | 0.0015 | 0.0027 | – | –
O=C(Nc1ccccc1)Nc1ccc(C2CCNC2)cc1 (racemic) [Example 6, (RS)-1-Phenyl-3-(4-pyrrolidin-3-yl-phenyl)-urea hydrochloride] | 0.0032 | – | 0.0295 | –
O=C(Nc1ccc([C@H]2CCCNC2)cc1)c1ccc(OCC(F)(F)F)nc1 [Example 223, (R)—N-(4-(Piperidin-3-yl)phenyl)-6-(2,2,2-trifluoroethoxy)nicotinamide hydrochloride] | 0.0016 | – | 0.0018 | –
